Data from ChEMBL document CHEMBL4219122, “Synthesis and biological evaluation of histone deacetylase and DNA topoisomerase II-Targeted inhibitors” (Bioorg Med Chem, 2018).
Active and inactive are the calls of the source. The calls are words filed in the database; no cut-off is given here.

Legend:
[1] = molecular target: T1, Histone deacetylase 1 (Homo sapiens, UniProt Q13547); test: Inhibition of recombinant human HDAC1 expressed in HEK293T cells using Ac-KGLGK(Ac)-MCA as substrate after 30 mins in presence of DTT by fluorescence assay
[2] = molecular target: T2, DNA topoisomerase 2-alpha (Homo sapiens, UniProt P11388); test: Inhibition of human placenta topoisomerase 2alpha assessed as reduction in pBR322 supercoiled DNA relaxation after 30 mins by ethidium bromide staining based agarose gel electrophoresis
[3] = tested on: DU-145; test: Growth inhibition of human DU145 cells after 48 hrs by sulforhodamine B-based colorimetric assay; format: functional, cell-based; conditions: DU-145, 48 h; for GI50: read-out: GI50
[4] = tested on: MCF7; test: Growth inhibition of human MCF7 cells after 48 hrs by sulforhodamine B-based colorimetric assay; format: functional, cell-based; conditions: MCF7, 48 h; for GI50: read-out: GI50
[5] = tested on: HCT-116; test: Growth inhibition of human HCT116 cells after 48 hrs by sulforhodamine B-based colorimetric assay; format: functional, cell-based; conditions: HCT-116, 48 h; for GI50: read-out: GI50
[6] = molecular target: T3, Protein deacetylase HDAC6 (Mus musculus, UniProt Q9Z2V5); test: Inhibition of recombinant mouse HDAC6 expressed in HEK293T cells co-expressing mouse HDA2 using Ac-KGLGK(Ac)-MCA as substrate after 30 mins in presence of DTT by fluorescence assay
T3 sequence (Q9Z2V5 whole entry): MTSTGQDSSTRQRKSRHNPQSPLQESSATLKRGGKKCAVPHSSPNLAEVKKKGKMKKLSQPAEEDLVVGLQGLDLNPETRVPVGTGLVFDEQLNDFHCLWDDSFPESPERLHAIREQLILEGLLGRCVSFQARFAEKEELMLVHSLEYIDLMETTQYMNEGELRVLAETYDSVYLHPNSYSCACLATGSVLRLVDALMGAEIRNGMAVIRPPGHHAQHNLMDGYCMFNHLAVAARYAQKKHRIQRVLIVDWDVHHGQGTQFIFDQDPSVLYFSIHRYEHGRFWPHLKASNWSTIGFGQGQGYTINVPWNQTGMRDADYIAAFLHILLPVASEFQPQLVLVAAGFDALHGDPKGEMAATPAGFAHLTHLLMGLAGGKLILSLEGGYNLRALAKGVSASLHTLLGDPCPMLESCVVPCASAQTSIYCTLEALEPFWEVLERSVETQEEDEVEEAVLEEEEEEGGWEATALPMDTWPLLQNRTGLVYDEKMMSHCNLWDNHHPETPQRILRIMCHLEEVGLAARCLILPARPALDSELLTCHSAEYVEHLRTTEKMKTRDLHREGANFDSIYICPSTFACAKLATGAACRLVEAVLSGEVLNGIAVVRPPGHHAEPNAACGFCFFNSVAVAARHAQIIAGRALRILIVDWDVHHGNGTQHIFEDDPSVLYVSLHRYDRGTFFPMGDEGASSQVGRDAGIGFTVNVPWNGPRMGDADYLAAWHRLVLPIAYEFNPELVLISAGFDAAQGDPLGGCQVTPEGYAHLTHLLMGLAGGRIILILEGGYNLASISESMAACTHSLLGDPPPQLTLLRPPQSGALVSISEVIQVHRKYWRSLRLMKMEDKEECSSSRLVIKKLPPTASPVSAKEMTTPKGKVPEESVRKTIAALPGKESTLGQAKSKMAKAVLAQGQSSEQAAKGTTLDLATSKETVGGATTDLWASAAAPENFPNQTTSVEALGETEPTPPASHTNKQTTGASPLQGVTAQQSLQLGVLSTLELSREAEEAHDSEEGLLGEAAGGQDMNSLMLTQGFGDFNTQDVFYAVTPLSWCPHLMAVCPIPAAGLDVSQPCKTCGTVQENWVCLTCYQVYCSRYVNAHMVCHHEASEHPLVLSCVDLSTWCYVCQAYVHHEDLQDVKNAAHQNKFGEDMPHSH

[7] = molecular target: T1, Histone deacetylase 1; test: Inhibition of recombinant human HDAC1 expressed in HEK293T cells at 10 uM using Ac-KGLGK(Ac)-MCA as substrate after 30 mins in presence of DTT by fluorescence assay
[8] = molecular target: T2, DNA topoisomerase 2-alpha; test: Inhibition of human topoisomerase-2 alpha-mediated kinetoplast DNA decatenation at 200 uM after 30 mins by ethidium bromide staining based agarose gel electrophoresis

T2 sequence (P11388 whole entry): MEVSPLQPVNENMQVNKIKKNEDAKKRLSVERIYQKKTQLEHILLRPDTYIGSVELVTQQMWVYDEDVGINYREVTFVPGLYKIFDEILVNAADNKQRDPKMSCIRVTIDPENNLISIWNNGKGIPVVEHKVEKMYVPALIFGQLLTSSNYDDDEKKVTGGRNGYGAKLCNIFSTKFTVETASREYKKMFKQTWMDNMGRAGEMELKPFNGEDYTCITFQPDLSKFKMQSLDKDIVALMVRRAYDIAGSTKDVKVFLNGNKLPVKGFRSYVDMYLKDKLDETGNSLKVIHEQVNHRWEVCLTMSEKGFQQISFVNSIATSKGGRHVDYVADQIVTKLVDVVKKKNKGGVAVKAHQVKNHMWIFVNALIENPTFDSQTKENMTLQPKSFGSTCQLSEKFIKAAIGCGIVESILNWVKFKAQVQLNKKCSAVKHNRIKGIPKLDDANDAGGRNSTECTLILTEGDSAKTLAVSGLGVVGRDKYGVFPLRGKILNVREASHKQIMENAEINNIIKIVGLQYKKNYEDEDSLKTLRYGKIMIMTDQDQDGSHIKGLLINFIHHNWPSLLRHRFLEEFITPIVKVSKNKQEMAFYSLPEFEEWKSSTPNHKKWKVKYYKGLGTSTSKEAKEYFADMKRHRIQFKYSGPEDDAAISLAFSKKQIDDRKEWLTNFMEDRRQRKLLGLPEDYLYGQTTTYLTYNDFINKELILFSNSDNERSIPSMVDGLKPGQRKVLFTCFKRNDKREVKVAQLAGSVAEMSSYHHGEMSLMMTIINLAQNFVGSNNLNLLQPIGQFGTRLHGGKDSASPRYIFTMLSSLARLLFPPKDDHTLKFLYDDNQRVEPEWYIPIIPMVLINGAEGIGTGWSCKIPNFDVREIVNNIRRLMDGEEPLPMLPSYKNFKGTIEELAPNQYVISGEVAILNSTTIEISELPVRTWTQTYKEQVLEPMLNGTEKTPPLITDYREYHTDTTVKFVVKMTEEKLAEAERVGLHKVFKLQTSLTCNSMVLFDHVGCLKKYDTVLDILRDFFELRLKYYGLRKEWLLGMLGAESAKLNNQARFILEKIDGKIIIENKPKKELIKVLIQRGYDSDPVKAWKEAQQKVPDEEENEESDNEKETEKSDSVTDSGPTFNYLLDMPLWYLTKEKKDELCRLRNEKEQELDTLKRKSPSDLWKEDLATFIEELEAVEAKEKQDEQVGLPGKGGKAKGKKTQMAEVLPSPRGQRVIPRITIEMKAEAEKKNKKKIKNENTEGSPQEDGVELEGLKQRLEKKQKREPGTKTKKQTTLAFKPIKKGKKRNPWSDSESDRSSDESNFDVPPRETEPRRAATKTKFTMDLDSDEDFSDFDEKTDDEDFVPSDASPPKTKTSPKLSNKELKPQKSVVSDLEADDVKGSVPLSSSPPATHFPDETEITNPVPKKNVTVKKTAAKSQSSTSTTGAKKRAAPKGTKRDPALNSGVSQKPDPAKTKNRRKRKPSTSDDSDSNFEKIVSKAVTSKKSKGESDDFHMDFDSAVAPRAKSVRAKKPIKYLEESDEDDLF
T1 sequence (Q13547 whole entry): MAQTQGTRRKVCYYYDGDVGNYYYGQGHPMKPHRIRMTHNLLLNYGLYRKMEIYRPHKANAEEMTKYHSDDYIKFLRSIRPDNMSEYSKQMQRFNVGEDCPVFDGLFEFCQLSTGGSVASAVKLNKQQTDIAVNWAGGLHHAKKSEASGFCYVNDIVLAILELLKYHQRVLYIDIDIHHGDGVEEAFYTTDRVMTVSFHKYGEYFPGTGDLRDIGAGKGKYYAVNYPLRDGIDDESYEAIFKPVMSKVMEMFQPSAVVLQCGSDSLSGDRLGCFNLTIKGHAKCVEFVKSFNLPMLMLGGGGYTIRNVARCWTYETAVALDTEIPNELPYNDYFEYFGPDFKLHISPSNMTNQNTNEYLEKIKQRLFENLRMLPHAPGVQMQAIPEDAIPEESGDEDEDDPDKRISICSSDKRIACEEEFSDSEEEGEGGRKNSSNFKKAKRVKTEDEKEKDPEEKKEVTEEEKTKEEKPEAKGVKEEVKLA

SMILES | IC50 [1] | IC50 [2] | GI50 [3] | GI50 [4] | GI50 [5] | IC50 [6] | further results
CC(/C=C/C(=O)NO)=C\C(C)C(=O)c1ccc(C2([C@H]3CC(=O)O[C@@H]3CO[Si](C)(C)C(C)(C)C)SCCCS2)cc1 (stereo not given in full) | 1.2 µM | 3 µM | – | – | – | – | –
COc1ccc(C2([C@H]3C[C@H](n4cc(C)c(=O)[nH]c4=O)O[C@@H]3CO[Si](C)(C)C(C)(C)C)SCCCS2)cc1OC | > 10 µM | 19.1 µM | 3.72 µM | 3.31 µM | 3.63 µM | > 10 µM | –
Cc1cn([C@H]2C[C@H](C3(c4ccc(NC(=O)CCCCC(=O)NO)cc4)SCCCS3)[C@@H](CO[Si](C)(C)C(C)(C)C)O2)c(=O)[nH]c1=O | 2.5 µM | – | 14.8 µM | 5.5 µM | 26.3 µM | 0.56 µM | –
Cc1cn([C@H]2C[C@H](C3(c4ccc(NC(=O)CCCCCCC(=O)O)cc4)SCCCS3)[C@@H](CO[Si](C)(C)C(C)(C)C)O2)c(=O)[nH]c1=O | – | – | – | – | – | – | IC50 [3]: 15.5 µM; IC50 [4]: 12.3 µM; inhibition [7]: inactive; IC50 [5]: 12.3 µM
COc1ccc(C2([C@H]3CC(=O)O[C@@H]3CO[Si](C)(C)C(C)(C)C)SCCCS2)cc1OC | – | 55.3 µM | – | – | – | – | –
Cc1cn([C@@H]2C[C@H](C3(c4ccc(NC(=O)CCCCCC(=O)NO)cc4)SCCCS3)[C@@H](CO[Si](C)(C)C(C)(C)C)O2)c(=O)[nH]c1=O | 0.59 µM | – | 28.8 µM | 17.8 µM | 14.8 µM | 0.081 µM | –
COc1cc([C@@H]2c3cc4c(cc3[C@@H](O[C@@H]3O[C@@H]5CO[C@@H](C)O[C@H]5[C@H](O)[C@H]3O)[C@H]3COC(=O)[C@H]23)OCO4)cc(OC)c1O | – | – | – | – | – | – | inhibition [8]: Active
Cc1cn([C@H]2C[C@H](C3(c4ccc(NC(=O)CCCCCC(=O)NO)cc4)SCCCS3)[C@@H](CO[Si](C)(C)C(C)(C)C)O2)c(=O)[nH]c1=O | 0.9 µM | – | 20.9 µM | 15.4 µM | 17.4 µM | 0.11 µM | –
Cc1cn([C@@H]2C[C@H](C3(c4ccc(NC(=O)CCCCC(=O)NO)cc4)SCCCS3)[C@@H](CO[Si](C)(C)C(C)(C)C)O2)c(=O)[nH]c1=O | 2.8 µM | – | 49 µM | 5.37 µM | 26.3 µM | 0.59 µM | –
CC(C)(C)[Si](C)(C)OC[C@H]1OC(=O)C[C@@H]1C1(c2ccccc2)SCCCS1 | – | 26.1 µM | – | – | – | – | –
